Experimental data taken from ChEMBL document CHEMBL3882736, “Modulation microtubules diseases; antiproliferative agents; antiinflamamtory agents” (2011).

System: not listed separately
Assay: Cytotoxicity against human PC3 cells assessed as growth inhibition at 20 uM after 40 hrs by MTT assay relative to control
Assay type: functional
Conditions: PC-3, 40 h, read-out: GI
Procedure, shortened: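 In 96-well plates, 10 µL compound (10× final) from screening plates prepared at 20 µM received 90 µL per well of late-log-phase human tumour cells in their own medium with 10% FBS. The plates stood 40 hr at 37° C. with 5% CO2 before a 6-hour MTT step, overnight SDS/HCl lysis and reading at 590 nm. Values give growth inhibition relative to control.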
CCCC(Nc1cncc(-c2ccc(CN3CCN(C)CC3)cc2)n1)c1ccccc1 (configuration not stated) gave an inhibition of growth at 20 µM of under 50%.
CCCC(Nc1cncc(-c2ccc(C(=O)NCCN(C)C)cc2)n1)c1ccccc1 (configuration not stated) showed an inhibition of growth at 20 µM of under 50%.
CCCC(Nc1cncc(-c2ccc(CNC(=O)C3CCC(=O)N3)cc2)n1)c1ccccc1 (configuration not stated) gave an inhibition of growth at 20 µM of under 50%.
CCC[C@H](Nc1cncc(-c2ccc(NC(=O)CN(C)C)c(OC)c2)n1)c1cccnc1 gave an inhibition of growth at 20 µM of over 50%.
CCCC(Nc1cncc(-c2ccc(NC(=O)c3cccnc3)c(OC)c2)n1)c1cccnc1 (configuration not stated) showed an inhibition of growth at 20 µM of under 50%.
Work on CCCC(Nc1cncc(-c2ccc(OCCCN3CCOCC3)c(OC)c2)n1)c1cccnc1 (configuration not stated) yielded an inhibition of growth at 20 µM of under 50%.
Work on CCCC(Nc1cncc(-c2ccc(OCCN(CC)CC)c(OC)c2)n1)c1cncc(C)c1 (configuration not stated) yielded an inhibition of growth at 20 µM of under 50%.
For CCCC(Nc1cncc(-c2ccc(C(=O)NCCCN3CCOCC3)cc2)n1)c1ccccc1 (configuration not stated), the inhibition of growth at 20 µM was under 50%.
CCCC(Nc1cncc(-c2ccc(C(=O)N3CCN(C)CC3)cc2)n1)c1ccccc1 (configuration not stated) gave an inhibition of growth at 20 µM of under 50%.
For CCCC(Nc1cncc(-c2ccc(OCCCN3CCOCC3)c(OC)c2)n1)c1ccccc1 (configuration not stated), the inhibition of growth at 20 µM was over 50%.
With COc1cc(-c2ncc(C)c(NC(CCO)c3ccccc3)n2)ccc1O (configuration not stated) the inhibition of growth at 20 µM was under 50%.
For COc1cc(-c2nc(N[C@H](C)c3ccccc3)nnc2C)ccc1O, the inhibition of growth at 20 µM was under 50%.
CCCC(Nc1cncc(-c2ccc(CN3CCCCC3)cc2)n1)c1ccccc1 (configuration not stated) gave an inhibition of growth at 20 µM of under 50%.
With CCNC(=O)Nc1ccc(-c2cncc(NC(C)c3cccnc3)n2)cc1OC (configuration not stated) the inhibition of growth at 20 µM was under 50%.
Molecule CCCC(Nc1cncc(-c2ccc(NC(=O)NCCCN(CC)CC)c(OC)c2)n1)c1cccnc1 (configuration not stated) has an inhibition of growth at 20 µM of under 50%.
COc1cc(-c2nc(N[C@H](C)c3ccccc3)nnc2C)cc(OC)c1OC gave an inhibition of growth at 20 µM of under 50%.
Work on CCCC(Nc1cncc(-c2ccc(OCCCN3CCCC3)c(OC)c2)n1)c1cccnc1 (configuration not stated) yielded an inhibition of growth at 20 µM of under 50%.
In the case of CCCC(Nc1cncc(-c2ccc(CN3CCC(O)CC3)cc2)n1)c1ccccc1 (configuration not stated), the inhibition of growth at 20 µM is reported as under 50%.
Work on CCCC(Nc1cncc(-c2ccc(C(=O)NCCCN(CC)CC)cc2)n1)c1ccccc1 (configuration not stated) yielded an inhibition of growth at 20 µM of under 50%.
CCCC(Nc1cncc(-c2ccc(NC(=O)NCC)cc2)n1)c1cccnc1 (configuration not stated) showed an inhibition of growth at 20 µM of under 50%.
CCCC(Nc1cncc(-c2ccc(C(=O)NCCCCCN)c(C)c2)n1)c1cccnc1 (configuration not stated) gave an inhibition of growth at 20 µM of under 50%.
CCCC(Nc1cncc(-c2ccc(CN(C)C)cc2)n1)c1ccccc1 (configuration not stated) showed an inhibition of growth at 20 µM of under 50%.
In the case of CCCC(Nc1cncc(-c2ccc(CO)c(OC)c2)n1)c1cccnc1 (configuration not stated), the inhibition of growth at 20 µM is reported as under 50%.
For CCCC(Nc1cncc(-c2ccc(OCCCN3CCN(C)CC3)c(OC)c2)n1)c1cccnc1 (configuration not stated), the inhibition of growth at 20 µM was under 50%.
Molecule CCCC(Nc1cncc(-c2ccc(NC(=O)N3CCN(C)CC3)c(OC)c2)n1)c1cccnc1 (configuration not stated) has an inhibition of growth at 20 µM of over 50%.
Work on CCCC(Nc1cncc(-c2ccc(CN3CCOCC3)cc2)n1)c1ccccc1 (configuration not stated) yielded an inhibition of growth at 20 µM of under 50%.
For CCCC(Nc1cncc(-c2cc(OC)c(OC)c(OC)c2)c1)c1ccccc1 (configuration not stated), the inhibition of growth at 20 µM was over 50%.
With CCCC(Nc1cncc(-c2ccc(NC(=O)C3CCNCC3)c(OC)c2)n1)c1cccnc1 (configuration not stated) the inhibition of growth at 20 µM was under 50%.
Molecule CCCC(Nc1cncc(-c2ccc(OCCCCN3CCOCC3)c(OC)c2)n1)c1ccccc1 (configuration not stated) has an inhibition of growth at 20 µM of under 50%.
With CCCC(Nc1cncc(-c2ccc(CN3CCC[C@H]3CO)cc2)n1)c1ccccc1 (some centres not stated) the inhibition of growth at 20 µM was under 50%.
Work on CCCC(Nc1cncc(-c2ccc(C(=O)N3CCOCC3)cc2)n1)c1ccccc1 (configuration not stated) yielded an inhibition of growth at 20 µM of under 50%.
In the case of CCCC(Nc1nnc(C)c(-c2cc(OC)c(OC)c(OC)c2)n1)c1ccccc1 (configuration not stated), the inhibition of growth at 20 µM is reported as under 50%.

Target: Tubulin (Homo sapiens) (UniProt P68371+Q9H4B7+P0DPH7+P68366+Q13509+Q71U36+P04350+Q3ZCM7+P07437+P68363+Q9BQE3+Q6PEY2+Q13885+Q9BVA1+Q9BUF5)
Assay: Inhibition of tubulin (unknown origin) polymerization at 50 uM by turbidometric method relative to control
Assay type: protein-complex assay
Conditions: not given
Procedure, shortened: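 Values are percent inhibition of microtubule polymerisation relative to control. Microtubule protein of unstated origin was incubated with compound at 0° C., then polymerisation was started in cuvettes with 1 mM GTP and heating to 37° C. Absorbance at 340 nm was recorded over time.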
In the case of COc1cc(-c2cncc(NC(C)c3cccc(NC(=O)c4cccnc4)c3)n2)ccc1O (configuration not stated), the inhibition is reported as over 50%.
CC[C@H](Nc1cncc(-c2ccc(O)c(OC)c2)n1)c1ccccc1 showed an inhibition of over 50%.
For COc1cc(-c2cncc(NC(C)c3ccc(-c4cccnc4)cc3)n2)ccc1O (configuration not stated), the inhibition was over 50%.
For COc1cc(-c2cncc(N[C@@H](C)c3ccccc3)n2)ccc1O, the inhibition was over 50%.
With COc1cc(-c2cncc(NC(C)c3cccc(NC(=O)[C@H]4CCCN4)c3)n2)ccc1O (some centres not stated) the inhibition was over 50%.
